Data set [1] in a line: Solubility of HPPA-Me. In kind it is physicochemical.
Data set [2] concerns Lipase MY. Briefly: Effect of reducing agents on immobilized Lipase MY in the presence of HPPA. The class given is biochemical, Candida rugosa. To be noted: for prevention of loss of enzyme activity: repeated batches, Tables 3-5.
Data set [3] relates to Lipase MY. Briefly: Two phase Lipase MY hydrolysis of HPPA-Me in organic solvent/water mixtures. In kind it is biochemical, Candida rugosa. As for the experimental part: A. 75% organic solvent/25% aqueous buffer--Fifty milligrams of R,S-HPPA-Me was combined in 10 ml Scintillation vial with 7.5 ml of organic solvent, 2.5 ml of 50 mM phosphate buffer pH 6.0, and 5 mg Lipase MY. The reactions were placed on shaker and shaken for a period of 0-43 hours with samples being taken at various times.
B. 25% organic solvent/75% aqueous buffer--Fifty milligrams of R,S-HPPA-Me was combined, in 10 ml Scintillation vial with 2.5 ml of organic solvent, 7.5 ml 50mM phosphate buffer (pH 6.8), and 5 mg Lipase MY. The reactions were shaken for a period of 0-143 hours with samples being taken at various time points.
The data in Table 2 represents the % conversion and % R-HPPA produced using the indicated organic solvents in a two-phase system wherein 75% […] of the total vehicle (solvent) was water and the balance (25%) was organic solvents.

The subject of data set [4] is CSC-2. The data set is described as follows: Effect of additives and solvents on hydrolysis of ketoprofen monoglyceride by CSC-2. The settings on record: solvent/buffer 1:1 two phase, 26 hours; for Relative Rate: buffer = 100. The class given is biochemical, Candida rugosa. As for the experimental part: Hydrolysis of ketoprofen-monoglyceride (50mg) was carried out in various DMF-100mM (NH4)H2 PO4 buffer (pH 5.5) mixtures. In each flask a solution of ketoprofen monoglyceride (50mg) in DMF (200ul) was added. DMF was added followed by 100mM (NH4)H2 PO4 buffer. […] After 22 hours, 2%, 5%, and 10% DMF samples were acidified, extracted with CHCl3 (2×10ml) and analyzed. The other samples were analyzed directly as in Example 18. The acid produced decreases with increasing amount of DMF.
Small amounts of DMF were added to the reaction mixture to increase the solubility of KPG. In all cases 100mM ammonium phosphate buffer (pH 5.5) was used and 2% (v/v) detergents were added and the total volume was 10ml.
The buffer reaction (entry #2 in the table) contained enzyme in buffer (2 ml) and the buffer only (entry #1 in the table) reaction contained no enzyme.
The presence of a surfactant like Tween increases the solubility o lipophilic compounds in water. […] Tween 80 was added to make 1% and 2% solution (v/v). Bovine serum albumin (BSA) (10mg) was added to each of two flasks. A solution of 50mg of ketoprofen monoglyceride in 200ul DMF was added to each. After 20 hours at 250 rpm and 35° C. the reaction mixtures were acidified, extracted and analyzed by the usual HPLC procedure as in Example 18.
Various surfactants were used at 2% of the reaction volume to determine their effect on the enzymatic reaction involving the conversion of ketoprofen monoglyceride (KPG) to ketoprofen (KP). […] Flasks were covered with parafilm and incubated in a 35° C. water bath at 250 rpm, typically overnight. Reactions were stopped by acidification, extracted with CHCl3 (2×10 ml). The %acid and %ee were determined by the method of Example 18. It is to be noted that Hydrophile-Lipophile Balance (HLB) values have no apparent bearing on the ability of the surfactant to enhance the conversion of KPG to KP.
75 mg of KPG (in the absence of DMF) was individually weighed into 50 ml Erlenmeyer flasks. […] 9 ml of 100 mM (NH4)H2 PO4, pH 5.5 buffer was added, and the flasks were placed into a 35° C., 250 rpm water bath incubator for 20 hours. The reactions were acidified, extracted with CHCl3 and examined by HPLC as in Example 18. The %ee was determined as per Example 18.
Various amounts of oleic acid or its esters were added, and the reactions stopped at the times indicated, acidified, extracted with CHCl3 and analyzed as in Example 18.
An experiment was performed as in Example 41, but using 100, 200 and 500 ul of olive oil to determine if it would enhance the rate of conversion of KPG to KP. […] After 20 hours, all reactions were acidified, extracted with CHCl3 and analyzed by HPLC as in Example 18. The results are given below:
50 mg of KPG was weighed into Erlenmeyer flasks. […] Flasks were incubated at 35° C., 250 rpm for 23 hours. The reactions were stopped by acidification, extracted with CHCl3, and analyzed by HPLC as in Example 18. The additive is listed along with its percentage composition of glycerides of oleic acid.
To determine the problems associated with having oleic acid or oleate. esters in the reaction media, the following experiment was performed. […] Flasks were placed in a 35° C. incubator at 250 rpm, and the reactions were sampled by taking 200 ul aliquots at various time points. These aliquots were analyzed by HPLC (ODS-3 RAC column, CH3 OH: 10 mM (NH4)H2 PO4 (60:40) eluant, 4 ml/min, 254 nm detection) to determine the course of reaction. When approximately 40% acid was produced, the reactions were stopped by placing the flasks in the -70° C. freezer. Two extraction procedures were utilized to determine the best method of isolating S-Ketoprofen free of oleic acid. The first (listed as Extraction Procedure I in the following table) involved first making the solution basic (pH 10) with NaOH, then extracting with hexane, then CHCl3.

Data set [5] can be described thus: Conversion of ketoprofen esters in organic solvent/oleic acid media. The class given is biochemical. The procedure: To optimize the organic solvent used in the presence of oleic acid a variety of organic solvents were used, along with a variety of ketoprofen esters. In this experiment, 50 mg of ketoprofen esters were weighed into flasks, along with 1 ml of oleic acid and 9 ml of an organic solvent. The flasks were capped and incubated at 35° C., 250 rpm, for 10-26 hours before stopping the reaction by first adding 4 ml CHCl3 to solubilize the substrates and products, then filtering through a 0.2 um Gelman Nylaflo filter. Samples were then diluted in methanol and analyzed by HPLC as in Example 18. The experiment was also performed using 200 ul of oleic acid and 10ml buffer, which was acidified, extracted with CHCl3 and analyzed by HPLC as above.
One ml of oleic acid was added, as was 9 ml of buffer (100 mM (NH4)H2 PO4, pH 5.5) or organic solvent. Flasks were placed into a 35° C. incubator and shaken at 250 rpm for 13 hours. Reaction was stopped by adding 5 ml CHCl3 to solubilize the organic material and filtering the solutions using 0.2 um Gelman Nylaflo membranes to remove the enzyme. Samples were analyzed on an ODS-3 RAC column using CH3 OH:10 mM (NH4)H2PO4 (60:40) as eluant, flow rate 4 ml/min, and detection at 254 nm. %ee was determined by the resolution of diastereomeric amides on the above HPLC system, as per Example 18.

Where [6] appears, read: 2 mg/ml in 1M HPPA, 4 days, control enzyme 100%, HPPA treated 70.4%.
Setting [7] is: KPG 50 mg, 100 mg CSC-2 on silica (279-SD-1), 9 ml solvent (or buffer)/1 ml oleic acid, 13 hours.

“And” between values parts separate entries of the source, which are not always exact repeats. Identical values can stand only once. Like-named read-outs stand apart in the source and are kept apart here.

Consider eleven molecules from US5108916A, “Process for stereoselectively hydrolyzing, transesterifying or esterifying with immobilized isozyme of lipase from Candida rugosa” (priority 1989, dated 1992).

`COC(=O)C(C)Oc1ccc(O)cc1` (racemic) [HPPA-ME, (R,S)-(+)-methyl-2-(4-hydroxyphenoxy)-propionate]: the solubility is under 25 mM in data set [1] (aqueous solution, pH 6.5, read-out: solubility); 558 mg/mL in data set [1] (organic solvent or mixture, in 1,1,2 trichloroethane, read-out: Solubility (HPPA-ME)); 566 mg/mL in data set [1] (organic solvent or mixture, in 1,2-dibromoethane, read-out: Solubility (HPPA-ME)); 33 mg/mL in data set [1] (organic solvent or mixture, in carbon tetrachloride, read-out: Solubility (HPPA-ME)); 20 mg/mL in data set [1] (organic solvent or mixture, in cumene, read-out: Solubility (HPPA-ME)); 66.4 mg/mL in data set [1] (organic solvent or mixture, in cyclohexane, read-out: Solubility (HPPA-ME)). Moreover, the solubility in data set [1] (organic solvent or mixture, in fluorobenzene, read-out: Solubility (HPPA-ME)) worked out at 156 mg/mL; in data set [1] (organic solvent or mixture, in tetrachloroethylene, read-out: Solubility (HPPA-ME)) it was 1.4 mg/mL; in data set [1] (organic solvent or mixture, in toluene, read-out: Solubility (HPPA-ME)), 236 mg/mL. For the same molecule, the “Solubility (HPPA-ME)” value in data set [1] (in trichlorotrifluoroethane) was “insoluble”.

With `O=S([O-])S(=O)[O-].[Na+].[Na+]` [Na2 S2 O4, sodium hydrosulfite], the “Relative Activity” value is 111% in data set [2] (8 mg/ml, 5760 min) and 112% in data set [2] (16 mg/ml, 5760 min). Also, the “Conversion (%) of HPPA-Me to HPPA” value in data set [2] (Na2S2O4 25 mg, batches as E39) is 25% and 21% and 34% and 23% and 29% and 18% and 31%. Moreover, the “prevention of loss of enzyme activity” value in data set [2] was “effective at preventing loss of enzyme activity”.

As for `O=S([O-])[O-].[Na+].[Na+]` [Na2 SO3, sodium sulfite], the “Relative Activity” value in data set [2] (setting [6]) came to 95%; in data set [2] (4 mg/ml), 101%; in data set [2] (8 mg/ml, 5760 min), 110%; in data set [2] (16 mg/ml, 5760 min), 111%. In data set [2] (Na2SO3 10 mg, batches as E44), the “Conversion (%) of HPPA-Me to HPPA” value is 26% and 20% and 16% and 14% and 13% and 15%. Further, the “prevention of loss of enzyme activity” value in data set [2] is recorded as “Neither sodium sulfite nor cystine was effective”.

Consider `ClC(Cl)(Cl)Cl` [carbon tetrachloride], for which, in data set [3] (solvent 25%, 2.7 hr), the “% R” value is recorded as 79% and the “Conversion (ester/acid)” value turned out to be 58%. Moreover, in data set [3] (solvent 75%, 2.7 hr), the “% R” value was determined as 76% and the “Conversion (ester/acid)” value turned out to be 61%. Further, in data set [4], the “EE of S-acid” value is on record as 95% and the “Relative Rate” value came out at 48.

Consider `CC(C)c1ccccc1` [cumene], for which, in data set [3] (solvent 25%, 2.7 hr), the “% R” value is given as 100% and the “Conversion (ester/acid)” value was found to be 35%. Further, in data set [4], the “EE of S-acid” value is given as 86% and the “Relative Rate” value came to 91.

Regarding `C1CCCCC1` [cyclohexane], the “% R” value is 100% in data set [3] (solvent 25%, 2.7 hr) and 83% in data set [3] (solvent 75%, 2.7 hr). The “Conversion (ester/acid)” value in data set [3] (solvent 25%, 2.7 hr) is recorded as 35%; in data set [3] (solvent 75%, 2.7 hr), 31%. In addition, the “EE of S-acid” value in data set [4] stood at 95%. Moreover, the “Relative Rate” value in data set [4] was found to be 185. Moreover, the “% Acid” value was 29% in data set [5] (KPEG 50 mg, as E212) and 38% in data set [5] (setting [7]). Besides, the “% ee S-acid” value in data set [5] (KPEG, as E212) amounted to 83%; in data set [5] (KPG, as E212) it was 98%.

Consider `N[C@@H](CSSC[C@H](N)C(=O)O)C(=O)O` [cystine], for which the “Relative Activity” value in data set [2] (setting [6]) amounted to 83%; in data set [2] (4 mg/ml) it was 76%; in data set [2] (8 mg/ml, 5760 min), 81%; in data set [2] (16 mg/ml, 5760 min), 83%. In data set [2] (Cystine 2.5 mg, 15 hrs, batch #: 1, 5, 9, 15, 16, 20, 21, 22), the “conversion of HPPA-Me (quantity not headed in Table 5)” value was 30 and 19 and 17 and 16 and 20. Further, in data set [2], the “prevention of loss of enzyme activity” value is on record as “Neither sodium sulfite nor cystine was effective”.

Regarding `ClC(Cl)=C(Cl)Cl` [tetrachloroethylene], the “% R” value turned out to be 83% in data set [3] (solvent 25%, 5.3 hr) and 85% in data set [3] (solvent 75%, 5.3 hr). The “Conversion (ester/acid)” value in data set [3] (solvent 25%, 5.3 hr) was 61%; in data set [3] (solvent 75%, 5.3 hr), 58%. Moreover, the “EE of S-acid” value in data set [4] worked out at 27%. Further, in data set [4], the “Relative Rate” value was determined as 3. In addition, the “% Acid” value in data set [5] (KPEG 50 mg, as E212) was found to be 0%; in data set [5] (setting [7]), 1%. For the same molecule, the “% ee S-acid” value in data set [5] (KPEG, as E212) is listed as 0%; in data set [5] (KPG, as E212), 0%.

As to `Cc1ccccc1` [toluene], in data set [3] (solvent 25%, 2.7 hr), the “% R” value worked out at 100%. In data set [3] (solvent 75%, 2.7 hr), the “% R” value is 90% and the “Conversion (ester/acid)” value worked out at 25%. Moreover, in data set [4], the “EE of S-acid” value was found to be 58% and the “Relative Rate” value is given as 15.

Turning to “tetrabutylammonium cyanoborohydride [Bu4 N CNBH3]”, the “Relative Activity” value in data set [2] (1m hppa phosphate, pH 6.5, 5760 min, 5760 min) is 83% and 81% and 88% and 85%.

Consider xylenes, for which, in data set [3] (solvent 25%, 5.3 hr), the “% R” value came out at 100% and the “Conversion (ester/acid)” value was 49%. Moreover, in data set [3] (solvent 75%, 5.36 hr), the “% R” value is 89% and the “Conversion (ester/acid)” value was 41%. Further, in data set [4], the “EE of S-acid” value stood at 81% and the “Relative Rate” value is on record as 44.

A word on the solubility: it is how much of the substance goes into solution per volume.
